# Measured values as given in patent publication US6818208B2, “Use of a flavonoid extract of ginkgo biloba substantially devoid of terpenes, in the dentibuccal field, and composition containing such extract” (Societe de Conseils de Recherches et d'Applications …, priority 1996, dated 2004).
# Biological target: T1, human leucocyte elastase (HLE) (Homo sapiens, UniProt P08246)
# T1 sequence (P08246 30-267): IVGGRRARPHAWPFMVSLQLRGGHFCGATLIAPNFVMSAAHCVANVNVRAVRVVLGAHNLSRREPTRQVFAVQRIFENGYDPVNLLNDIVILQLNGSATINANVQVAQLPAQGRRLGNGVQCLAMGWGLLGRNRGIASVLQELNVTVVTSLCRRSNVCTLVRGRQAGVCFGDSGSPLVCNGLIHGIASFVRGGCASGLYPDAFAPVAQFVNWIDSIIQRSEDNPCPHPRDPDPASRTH
# Experiment: Anti-elastasic activity ex vivo on frozen sections of human gums (elastic fibres remaining, morphometric quantification by image analysis)
# Assay type: biochemical
# Conditions: HLE + PMSF, HLE 10 μm/ml, two hours
# Procedure: The purpose of this study is therefore to study the anti-elastasic activity of an extract as defined above, alone or in combination with ceramides. This activity is evaluated on sections of human gums.
# The ceramides used, of vegetable origin, are obtained according to a process as described in Patent FR 2676936 incorporated by way of reference, a process which comprises exctraction from wheat, using a polar extraction solvent followed by recrystallization from an organic solvent. They are essentially composed of glucosylceramides and ceramides.
# For this purpose, the elastic fibre network is subjected to human leucocyte elastase (HLE), with or without an anti-elastasic product. The elastic fibres remaining after enzymatic action are stained with (+) catechin.
# Frozen sections of 8 μm are carried out from 5 samples obtained from biopsies of normal buccal mucosa, taken during dental extractions.
# In a first stage, the concentration in human leucocyte elastase required for the destruction of elastic fibres is determined: leucocyte elastase is applied to the skin sections for two hours at ambient temperature and in a humid atmosphere; after fixing in acetone and dehydration in ethanol at […], the remaining elastic fibres are stained with (+) catechin. Total destruction of the elastic fibres is obtained in the presence of 10 μm/ml of human leucocyte elastase.
# The anti-elastasic activity of the products is compared with that of (PMSF), a powerful elastase inhibitor.
smiles,measurement,setting,value
O=S(=O)(F)Cc1ccccc1 [PMSF],% of elastic fibres remaining after treatment with human leucocyte elastase,lower corium dermis,70%
same,% of elastic fibres remaining after treatment with human leucocyte elastase,medium corium dermis,55%
same,% of elastic fibres remaining after treatment with human leucocyte elastase,upper corium dermis,25%
